The target in this assay is Human PDE10A1 (Homo sapiens, UniProt Q9Y233). In words: hPDE10A1 Enzyme Inhibition. Format: biochemical. The note with it: [3H]-cAMP substrate; read-out: hPDE10A1 IC50 Band. The method, then: hPDE10A1 Enzyme Activity: 50 μl samples of serially diluted Human PDE10A1 enzyme were incubated with 50 μl of [^3H]-cAMP for 20 minutes (at 37° C.). Reactions were carried out in Greiner 96 deep well 1 ml master-block. The enzyme was diluted in 20 mM Tris HCl pH7.4 and [^3H]-cAMP was diluted in 10 mM MgCl2, 40 mM Tris.HCl pH 7.4. The reaction was terminated by denaturing the PDE enzyme (at 70° C.) after which [^3H]-5′-AMP was converted to [^3H]-adenosine by adding 25 μl snake venom nucleotidase and incubating for 10 minutes (at 37° C.). Adenosine, being neutral, was separated from charged cAMP or AMP by the addition of 200 μl Dowex resin. Samples were shaken for 20 minutes then centrifuged for 3 minutes at 2,500 r.p.m. 50 μl of supernatant was removed and added to 200 μl of MicroScint-20 in white plates (Greiner 96-well Optiplate) and shaken for 30 minutes before reading on Perkin Elmer TopCount Scintillation Counter.
Sequence of Human PDE10A1 (Q9Y233 1-779 isoform Q9Y233-1): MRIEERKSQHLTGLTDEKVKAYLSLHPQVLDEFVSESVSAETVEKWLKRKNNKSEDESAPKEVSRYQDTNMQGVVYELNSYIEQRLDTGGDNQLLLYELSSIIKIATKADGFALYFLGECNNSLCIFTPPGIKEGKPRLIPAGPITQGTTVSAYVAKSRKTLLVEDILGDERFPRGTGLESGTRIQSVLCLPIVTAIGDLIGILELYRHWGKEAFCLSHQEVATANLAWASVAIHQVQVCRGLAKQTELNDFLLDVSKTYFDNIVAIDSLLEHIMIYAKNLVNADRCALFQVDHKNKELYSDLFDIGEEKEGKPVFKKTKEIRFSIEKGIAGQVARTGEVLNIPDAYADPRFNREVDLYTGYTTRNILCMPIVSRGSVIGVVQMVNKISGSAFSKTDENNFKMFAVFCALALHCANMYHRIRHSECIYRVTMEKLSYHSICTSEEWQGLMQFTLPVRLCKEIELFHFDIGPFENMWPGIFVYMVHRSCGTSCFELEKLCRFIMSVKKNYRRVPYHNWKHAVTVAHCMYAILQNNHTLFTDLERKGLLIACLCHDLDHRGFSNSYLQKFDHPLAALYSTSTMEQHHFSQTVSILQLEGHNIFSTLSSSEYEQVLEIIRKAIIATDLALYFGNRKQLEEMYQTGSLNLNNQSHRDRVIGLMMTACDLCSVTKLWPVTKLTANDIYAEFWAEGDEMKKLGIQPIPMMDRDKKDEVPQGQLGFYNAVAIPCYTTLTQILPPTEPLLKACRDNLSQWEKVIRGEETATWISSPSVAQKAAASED
hPDE10A1 Enzyme Inhibition: To check inhibition profile 11 μl of serially diluted inhibitor was added to 50 μl of [^3H]-cAMP and 50 ul of diluted Human PDE10A1 and assay was carried out as in the enzyme activity assay. Data was analysed using Prism software (GraphPad Inc).
Broadly, the IC50 is the point on the concentration scale where inhibition reaches its midpoint. On to `N#Cc1cccc(-c2ccc(OCc3ccc4ccccc4n3)cc2)c1-c1ccncc1` [Example 1870, 2-Pyridin-4-yl-4′-(quinolin-2-ylmethoxy)-biphenyl-3-carbonitrile], for which the IC50 is > 50 nM. The value for `Fc1cccc(-c2ccncc2)c1-c1ccc(OCc2ccc3ccccc3n2)cc1` [Example 381, 2-(6′-Fluoro-2′-pyridin-4-yl-biphenyl-4-yloxymethyl)-quinoline] was > 50 nM; that for `c1ccc(-c2ccccc2-c2ccc(OCc3ccc4ccccc4n3)cc2)cc1` [Example 1863] was > 50 nM.

As for `N#Cc1cccc(-c2ccncc2)c1-c1ccc(OCc2ccc3ccccc3n2)cc1` [Example 383, 6-Pyridin-4-yl-4′-(quinolin-2-ylmethoxy)-biphenyl-2-carbonitrile], the IC50 was ≤ 50 nM. The value for `c1ccc(-c2ccc(OCc3cn4ccccc4n3)cc2)c(-c2ccncc2)c1` [Example 619, 2-((2′-(pyridin-4-yl)biphenyl-4-yloxy)methyl)imidazo[1,2-a]pyridine] was ≤ 50 nM; that for `N#Cc1cc(-c2ccccc2-c2ccc(OCc3ccc4ccccc4n3)cc2)ccc1Cl` [Example 1855] was ≤ 50 nM.

In the case of `Cc1cccc(COc2ccc(-c3ccccc3-c3ccncc3)cc2)n1` [Example 1884, 2-methyl-6-((2′-(pyridin-4-yl)biphenyl-4-yloxy)methyl)pyridine], the IC50 was > 50 nM.

As for `Fc1ccc(-c2ccc(OCc3ccc4ccccc4n3)cc2)c(-c2ccncc2)c1` [Example 1856, 2-(4′-Fluoro-2′-pyridin-4-yl-biphenyl-4-yloxymethyl)-quinoline], the IC50 is ≤ 50 nM. To `Fc1ccc(-c2ccncc2)c(N2CCC(OCc3ccc4ccccc4n3)CC2)c1` [Example 1706, 2-((1-(5-fluoro-2-(pyridin-4-yl)phenyl)piperidin-4-yloxy)methyl)quinoline] belongs > 50 nM. To `COc1cccc(-c2ccncc2)c1-c1ccc(OCc2ccc3ccccc3n2)cc1` [Example 385, 2-((2′-Methoxy-6′-(pyridin-4-yl)biphenyl-4-yloxy)methyl)quinoline] belongs ≤ 50 nM; to `c1cc(-c2ccncc2)c(-c2ccc(OCc3ccc4ccccc4n3)cc2)c(C2OCCCO2)c1` [Example 1857, 2-((2′-(1,3-Dioxan-2-yl)-6′-(pyridin-4-yl)biphenyl-4-yloxy)methyl)quinoline], ≤ 50 nM. The value for `CS(=O)(=O)c1cccc(-c2ccncc2)c1-c1ccc(OCc2ccc3ccccc3n2)cc1` [Example 392, 2-((2′-(methylsulfonyl)-6′-(pyridin-4-yl)biphenyl-4-yloxy)methyl)quinoline] was ≤ 50 nM. As to `Cc1cnc(COc2ccc(-c3ccccc3-c3ccncc3)cc2)c(C)c1` [Example 1887, 3,5-dimethyl-2-((2′-(pyridin-4-yl)biphenyl-4-yloxy)methyl)pyridine], the IC50 is ≤ 50 nM. The value for `COc1ccc(-c2ccccc2-c2ccc(OCc3ccc4ccccc4n3)cc2)cc1C#N` [Example 281] was ≤ 50 nM. To `Cc1cccnc1COc1ccc(-c2ccccc2-c2ccncc2)cc1` [Example 1882, 3-methyl-2-((2′-(pyridin-4-yl)biphenyl-4-yloxy)methyl)pyridine] belongs > 50 nM. To `Cc1cccc(-c2ccncc2)c1-c1ccc(OCc2ccc3ccccc3n2)cc1` [Example 387, 2-(6′-Methyl-2′-pyridin-4-yl-biphenyl-4-yloxymethyl)-quinoline] belongs ≤ 50 nM. As to `Clc1ccc(-c2ccccc2-c2ccc(OCc3ccc4ccccc4n3)cc2)cc1` [Example 180], the IC50 was > 50 nM.

As to `CCCc1ccccc1-c1ccc(OCc2ccc3ccccc3n2)cc1` [Example 1866, 2-((2′-propylbiphenyl-4-yloxy)methyl)quinoline], the IC50 was > 50 nM. The value for `O=Cc1cccc(-c2ccncc2)c1-c1ccc(OCc2ccc3ccccc3n2)cc1` [Example 1854, 6-(Pyridin-4-yl)-4′-(quinolin-2-ylmethoxy)biphenyl-2-carbaldehyde] was ≤ 50 nM.

Regarding `O=C(c1cccc(-c2ccncc2)c1-c1ccc(OCc2ccc3ccccc3n2)cc1)N1CCOCC1` [Example 1864, morpholino(6-(pyridin-4-yl)-4′-(quinolin-2-ylmethoxy)biphenyl-2-yl)methanone], the IC50 is > 50 nM. To `COc1ccccc1-c1ccc(OCc2ccc3ccccc3n2)cc1` [Example 1883, 2-((2′-methoxybiphenyl-4-yloxy)methyl)quinoline] belongs > 50 nM; to `Clc1ccc(-c2ccc(OCc3ccc4ccccc4n3)cc2)c(-c2ccncc2)c1` [Example 1876, 2-((4′-Chloro-2′-(pyridin-4-yl)biphenyl-4-yloxy)methyl)quinoline], > 50 nM; to `Cc1ccnc(COc2ccc(-c3ccccc3-c3ccncc3)cc2)c1` [Example 1947, 4-methyl-2-((2′-(pyridin-4-yl)biphenyl-4-yloxy)methyl)pyridine], > 50 nM. The value for `Fc1ccc(N2CCOCC2)c(-c2ccc(OCc3ccc4ccccc4n3)cc2)c1` [Example 469, 4-(5-fluoro-4′-(quinolin-2-ylmethoxy)biphenyl-2-yl)morpholine] was ≤ 50 nM; that for `c1cc(-c2ccncc2)c(-c2ccc(OCc3ccc4ccccc4n3)cc2)c(N2CCOCC2)c1` [Example 1873, 4-(6-(pyridin-4-yl)-4′-(quinolin-2-ylmethoxy)biphenyl-2-yl)morpholine] was > 50 nM. As for `Fc1ccc(-c2ccncc2)c(-c2ccc(OCc3ccc4ccccc4n3)cc2)c1` [Example 404, 2-((5′-fluoro-2′-(pyridin-4-yl)biphenyl-4-yloxy)methyl)quinoline], the IC50 is ≤ 50 nM. Take `N#Cc1ccc(-c2ccccc2-c2ccc(OCc3ccc4ccccc4n3)cc2)cc1Cl` [Example 1865]: the IC50 is > 50 nM. As to `Cc1cc(-c2ccccc2-c2ccc(OCc3ccc4ccccc4n3)cc2)ccn1` [Example 1859, 2-((2′-(2-methylpyridin-4-yl)biphenyl-4-yloxy)methyl)quinoline], the IC50 is ≤ 50 nM. To `O=[N+]([O-])c1cccc(-c2ccncc2)c1-c1ccc(OCc2ccc3ccccc3n2)cc1` [Example 384, 2-(2′-Nitro-6′-pyridin-4-yl-biphenyl-4-yloxymethyl)-quinoline] belongs ≤ 50 nM; to `Cc1ccc(-c2ccncc2)c(-c2ccc(OCc3ccc4ccccc4n3)cc2)c1` [Example 408, 2-(5′-Methyl-2′-pyridin-4-yl-biphenyl-4-yloxymethyl)-quinoline], ≤ 50 nM. The value for `Nc1cccc(-c2ccncc2)c1-c1ccc(OCc2ccc3ccccc3n2)cc1` [Example 1881, 6-Pyridin-4-yl-4′-(quinolin-2-ylmethoxy)-biphenyl-2-ylamine] was > 50 nM. On to `Clc1ccc(-c2ccncc2)c(-c2ccc(OCc3ccc4ccccc4n3)cc2)c1` [Example 405, 2-((5′-Chloro-2′-(pyridin-4-yl)biphenyl-4-yloxy)methyl)quinoline], for which the IC50 is ≤ 50 nM. To `c1ccc(N2CCCC2)c(-c2ccc(OCc3ccc4ccccc4n3)cc2)c1` [Example 1868, 2-((2′-(pyrrolidin-1-yl)biphenyl-4-yloxy)methyl)quinoline] belongs > 50 nM; to `CCc1ccc(COc2ccc(-c3ccccc3-c3ccncc3)cc2)nc1` [Example 1878, 5-ethyl-2-((2′-(pyridin-4-yl)biphenyl-4-yloxy)methyl)pyridine], > 50 nM; to `N#Cc1cccc(N2CCOCC2)c1-c1ccc(OCc2ccc3ccccc3n2)cc1` [Example 448, 6-morpholino-4′-(quinolin-2-ylmethoxy)biphenyl-2-carbonitrile], ≤ 50 nM. To `COc1cc(-c2ccccc2-c2ccc(OCc3ccc4ccccc4n3)cc2)ccc1Cl` [Example 1861] belongs ≤ 50 nM; to `Cc1cc(-c2ccncc2)c(-c2ccc(OCc3ccc4ccccc4n3)cc2)cc1C` [Example 1880, 2-((4′,5′-dimethyl-2′-(pyridin-4-yl)biphenyl-4-yloxy)methyl)quinoline], > 50 nM; to `COc1ccc(-c2ccccc2-c2ccc(OCc3ccc4ccccc4n3)cc2)cc1F` [Example 1858], ≤ 50 nM. The value for `Cc1cccc(-c2ccc(OCc3ccc4ccccc4n3)cc2)c1-c1ccncc1` [Example 1886, 2-(3′-Methyl-2′-pyridin-4-yl-biphenyl-4-yloxymethyl)-quinoline] was > 50 nM; that for `CN(C)Cc1cccc(-c2ccncc2)c1-c1ccc(OCc2ccc3ccccc3n2)cc1` [Example 1874, N,N-dimethyl-1-(6-(pyridin-4-yl)-4′-(quinolin-2-ylmethoxy)biphenyl-2-yl)methanamine] was > 50 nM; that for `N#Cc1ccc(-c2ccccc2-c2ccc(OCc3ccc4ccccc4n3)cc2)cc1` [Example 255] was ≤ 50 nM. With `Cc1ccc(-c2ccc(OCc3ccc4ccccc4n3)cc2)c(-c2ccncc2)c1` [Example 1867, 2-(4′-Methyl-2′-pyridin-4-yl-biphenyl-4-yloxymethyl)-quinoline], the IC50 was > 50 nM. Consider `CC(C)Oc1ccccc1-c1ccc(OCc2ccc3ccccc3n2)cc1` [Example 1879, 2-((2′-isopropoxybiphenyl-4-yloxy)methyl)quinoline], for which the half-maximal inhibitory concentration (IC50) was > 50 nM. As to `COc1ccc(-c2ccccc2-c2ccc(OCc3ccc4ccccc4n3)cc2)cc1C(F)(F)F` [Example 1860], the IC50 was ≤ 50 nM.

(Values after patent US20110224204A1, “DI-SUBSTITUTED PHENYL COMPOUNDS” (priority 2008, published 2011).)
